For test [1], the target named is T1, Xaa-Pro dipeptidase (Homo sapiens, UniProt P12955).
T1 sequence (P12955 whole entry): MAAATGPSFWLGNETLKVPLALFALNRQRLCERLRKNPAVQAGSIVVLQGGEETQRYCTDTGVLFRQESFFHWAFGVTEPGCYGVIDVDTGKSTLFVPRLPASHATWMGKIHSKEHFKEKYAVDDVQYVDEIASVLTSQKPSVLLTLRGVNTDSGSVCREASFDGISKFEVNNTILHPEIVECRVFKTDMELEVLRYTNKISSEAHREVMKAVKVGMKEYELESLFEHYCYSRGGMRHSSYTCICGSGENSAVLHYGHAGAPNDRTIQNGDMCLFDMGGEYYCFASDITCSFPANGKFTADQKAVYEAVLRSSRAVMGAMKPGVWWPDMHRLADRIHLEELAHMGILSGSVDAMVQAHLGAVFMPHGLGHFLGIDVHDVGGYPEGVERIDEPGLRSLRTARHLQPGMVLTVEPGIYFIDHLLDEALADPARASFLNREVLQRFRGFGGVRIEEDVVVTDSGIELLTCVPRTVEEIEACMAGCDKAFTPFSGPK
Kind of test: Competitive inhibition of prolidase (unknown origin) in erythrocytes assessed as inhibition constant.

The next test has as its system MDA-MB-231. Kind of test: Cytotoxicity against human MDA-MB-231 cells assessed as reduction in cell viability measured for 72 hrs by MTT assay. Particulars: MDA-MB-231, 72 h.
The test system of the next test is MCF7. In words: Cytotoxicity against human MCF7 cells assessed as reduction in cell viability measured for 72 hrs by MTT assay. Particulars: MCF7, 72 h. Background: Tetrazolium assays rely on reduction of a dye to a coloured formazan, in cell work by metabolically active cells.
The subject of another test is SK-MEL-5. In words: cells. Particulars: Homo sapiens, SK-MEL-5, 48 h.
Test [2] addresses T1, Xaa-Pro dipeptidase. Kind of test: Inhibition of prolidase (unknown origin).

As a reminder, the Ki is a dissociation constant, usually derived from enzyme kinetics or from competition with a known ligand. Usually IC50 stands for the concentration needed to halve the response being measured. As usually defined, the GI50 is the concentration at which growth is held to half of that of the control.

Description for SK-MEL-5: Growth inhibition of human SK-MEL-5 cells after 48 hrs by sulforhodamine B assay

In the case of `NC(=O)Nc1ccc(O)cc1`, the Ki at Xaa-Pro dipeptidase [1] was determined as 9.73 µM.

`O=NN(CCCl)C(=O)N1CCC[C@H]1C(=O)O`: the IC50 in the test on MDA-MB-231 was found to be 88 µM; in the test on MCF7 it was 102 µM.

In turn, `N[C@@H](Cc1ccc(N(CCCl)CCCl)cc1)C(=O)O` showed a GI50 in the test on SK-MEL-5 of 74.8 µM.

With `COc1cccc2c1C(=O)c1c(O)c3c(c(O)c1C2=O)C[C@@](O)(C(C)=O)C[C@@H]3O[C@H]1C[C@H](N)[C@H](O)[C@H](C)O1` [DAUNORUBICIN], half-maximal inhibition on Xaa-Pro dipeptidase [2] (IC50) required 0.3 µM.

Consider `COc1cccc2c1C(=O)c1c(O)c3c(c(O)c1C2=O)C[C@@](O)(C(=O)CO)C[C@@H]3O[C@H]1C[C@H](N)[C@H](O)[C@H](C)O1` [DOXORUBICIN], for which the concentration for half-maximal inhibition (IC50) against Xaa-Pro dipeptidase [2] was found to be 10 µM.
